According to patent publication US9850241B2, “Azaindole acetic acid derivatives and their use as prostaglandin D2 receptor modulators” (IDORSIA PHARMACEUTICALS LTD, priority 2014, dated 2017):

Assays:
[1] = system: primary cultured rat hepatocytes; test: In vitro cytotoxicity in primary cultured rat hepatocytes; format: cell-based; conditions: 24 h treatment, cell morphology and LDH leakage, highest concentration 300 μM; for LCC (lowest cytotoxic concentration): "300 s" = only slight cytotoxicity at the highest test concentration
Excerpt: In Vitro Cytotoxicity in Primary Cultured Rat Hepatocytes
Adult male Wistar rats were narcotized with sodium pentobarbital and hepatocytes were isolated according to a standard procedure, i.e. by in situ perfusion of the liver with a collagenase solution. The viability of the purified hepatocytes, checked by the trypan blue dye exclusion method was greater than 85%. The isolated hepatocytes were resuspended in standard Williams Medium E, without phenol red, supplemented (WME supp.) with transferrin (100 μg/ml), triiodothyronine (10 μg/ml), gentamicin (50 μg/ml), hydrocortison hemisuccinate (13.36 μg/ml), glucagon (5 μg/ml), HEPES (10 mM), inosin (10 μ/ml), insulin (10 μg/ml), streptomycin (100 μg/ml) and penicillin (100 U/ml) and 10% fetal bovine serum (FBS). The cells were plated in collagen-coated 24-well plates at an initial density of 2×10^5 cells/well. After 4 h for attachment to the culture-plates, the medium was aspirated and replaced by fresh WME supp. without FBS containing the test compounds and incubated for 24 h at 37° C. in a […] and 5% CO2 atmosphere. For each experiment, i.e., with each batch of hepatocytes, treatments with the test compounds were done in quadriplicate. Quadriplicate controls (treatment with the vehicle only) were also present on each culture plate.
Stock solutions of the test compounds were prepared in DMSO a few hours before treatment start. Appropriate dilutions of these stock solutions were added to the culture media just prior to the treatment in order to give final concentrations of 0, 3, 10, 30, 100 and 300 μM. The final concentration of the vehicle DMSO was 1% (v/v).
The morphology of the hepatocyte monolayers was monitored by light microscopy after 24 hours of exposure to the test compounds. Treatment related effects are described according to the following grading: • 0 No morphological alterations observed upon treatment when compared to the control cultures • 1-3 Treatment resulting in any morphological changes, e.g. intracellular granulation, vacuolization or cell death. Depending on the severity, these changes were regarded as slight (1), moderate (2) or strong (3). • K Treatment resulting in 100% dead cells and/or the complete detachment of the monolayer yielding a clear cell-free dish.
After 24 h treatment of the hepatocyte cultures, aliquots of culture medium were carefully collected and used for the analysis of lactate dehydrogenase (LDH) activity by spectrophotometry using the LDH cytotoxicity detection kit from Clontech (cat No. 630117, Mountain View, Calif., USA). For each experiment, additional cultures were used for the determination of total intracellular LDH activity at treatment start. For this purpose, 4 wells of cell culture per experiment were washed with cold saline before treatment start, sonicated in fresh medium and the homogenate was analyzed for total LDH activity. Enzyme activities in the culture media were assessed and expressed as percentage of the total activity present in the cultured hepatocytes at the beginning of the treatments.
The lowest cytotoxic concentration (LCC) and the no effect concentration (NoEC) are given for each compound, based on cell morphology and LDH leakage after 24 h treatment. LCC is defined as the lowest concentration of the test compound leading to a clear effect on the cultured rat hepatocytes (morphology grading 2 or 2-fold increase in LDH leakage). A LCC value of >300 μM indicates the absence of effect on both endpoints at the highest test concentration of 300 μM. […] NoEC is defined as the highest test concentration of the compound which was without an effect on the cultured rat hepatocytes (morphology and LDH leakage). • 3 . Results

hCRTH2 receptor [2] = target: T1, hCRTH2 receptor (Homo sapiens, UniProt Q9Y5Y4); test: hCRTH2 receptor membranes radioligand displacement assay (3H-PGD2); format: binding; conditions: HEK293-hCRTH2 membranes, 3H-PGD2 2.5 nM, 0.1% BSA
T1 construct: expressed in transfected cells; host or cells: HEK293 (recombinant HEK293-hCRTH2), membrane fragments
T1 sequence (Q9Y5Y4 1-395): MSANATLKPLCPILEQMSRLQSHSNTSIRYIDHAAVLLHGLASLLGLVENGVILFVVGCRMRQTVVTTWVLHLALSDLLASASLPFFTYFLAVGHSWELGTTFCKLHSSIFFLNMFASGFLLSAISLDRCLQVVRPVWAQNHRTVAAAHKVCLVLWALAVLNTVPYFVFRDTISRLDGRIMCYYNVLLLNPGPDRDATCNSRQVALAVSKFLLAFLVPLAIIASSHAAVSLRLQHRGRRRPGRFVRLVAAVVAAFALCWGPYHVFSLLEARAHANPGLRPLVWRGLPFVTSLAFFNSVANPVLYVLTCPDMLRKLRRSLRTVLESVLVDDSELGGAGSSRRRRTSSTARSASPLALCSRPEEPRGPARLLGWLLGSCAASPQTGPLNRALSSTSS
Experimental: Preparation of hCRTH2 Receptor Membranes and Radioligand Displacement Assay:
(§1) First, recombinant HEK293-hCRTH2 cells were detached from culture plates into 5 ml buffer A/plate (Buffer A: 5 mM Tris, 1 mM MgCl2-6H2O pH=7.4) using a rubber policeman. Cells were then transferred into centrifugation tubes and centrifuged for 5 min at 400 g. The cell pellet was resuspended in the same buffer and tubes were frozen at 80° C. Cells were thawed and membrane fragments were generated by homogenization using a polytron homogenizer (30 seconds). The membrane fragments were then centrifuged at 3000 g for 20 minutes and resuspended in buffer C (Buffer C: 75 mM Tris, 25 mM MgCl2, 250 mM Saccharose pH 7.4). Aliquots of membrane fragements were stored at −20° C.
Binding assay was performed in a final assay volume of 250 μl. First, 25 μl of test compound, previously diluted in Binding-Buffer (Binding-Buffer: 50 mM Tris-Base, 100 mM NaCl, 1 mM EDTA, 0.1% BSA (protease free), 0.01% NaN3, 10 mM MnCl2 pH 7.0) was placed into each well. After addition of 75 μl Binding-Buffer, 50 μl of the radioligand ^3H-PGD2 (at 2.5 nM (220.000 dpm/well) from ANAWA ART0662) was added to each well. Binding assay was started by addition of 100 μl CRTH2 membrane fragments, reaching a final concentration of 20 μg/well. For non-specific binding, PGD2 was added to the reaction mixture to […] final concentration. This assay mix was incubated for 90 minutes at room temperature and then filtered through a GF/C filter 96-well plate which was pre-soaked for 3 hours in 0.5% polyethyleneimine (PEI). The filter-wells were washed three times with ice cold Binding-Buffer. Then, 40 μl of Microscint-40 (Packard) was added to each well and the retained radioactivity quantified in a Topcount (Packard).

[3] = system: eosinophils activated by PGD2; test: Eosinophil shape change assay with human plasma; format: cell-based; conditions: 50% human plasma, PGD2 100 nM, shape change by forward-scatter
Experimental: Eosinophil Shape Change Assay with human Plasma
After obtaining informed consent, blood samples were drawn by venipuncture according to the protocol approved by the ethics committee of Basel, Switzerland. Polymorphonuclear leukocytes (containing eosinophils, basophils and neutrophils) were isolated using the Polymorphprep™ method (Axis-Shield). In brief, anticoagulated whole blood was layered onto a Polymorphprep gradient (density 1.113 g/ml) and centrifuged at 500 g for 30 min. The polymorphonuclear cell fraction was harvested and depleted for erythrocytes by hypotonic saline lysis. […]
Immediately after fixation with paraformaldehyde, the samples were analyzed by FACSCanto flow cytometer (BD Biosciences) and target cells were identified by their forward-scatter (FSC) and side-scatter (SSC) characteristics. […] Shape change responses, indicative of eosinophil activation, were quantified as the percent of cells with an increased forward-scatter.

hCRTH2 receptor [4] = target: T1, hCRTH2 receptor; test: Radioligand displacement assay in presence of human serum albumin (HSA); conditions: Binding buffer with 0.5% HSA instead of 0.1% BSA, 3H-PGD2 2.5 nM
Experimental: as §1
Binding assay was performed in a final assay volume of 250 μl. […] After addition of 75 μl Binding-Buffer, 50 μl of the radioligand ^3H-PGD2 (at 2.5 nM (220.000 dpm/well) from ANAWA ART0662) was added to each well. Binding assay was started by addition of 100 μl CRTH2 membrane fragments, reaching a final concentration of 20 μg/well. For non-specific binding, PGD2 was added to the reaction mixture to […] final concentration. […] Then, 40 μl of Microscint-40 (Packard) was added to each well and the retained radioactivity quantified in a Topcount (Packard). […]

Row | SMILES | NoEC (no effect concentration) [1] [µM] | LCC (lowest cytotoxic concentration) [1] | IC50 (hCRTH2 receptor [2]) [nM] | IC50 [3] [nM] | IC50 (hCRTH2 receptor [4]) [nM]
1 | CN(c1nc2ccc(Cl)cc2o1)C1CCc2c(c3ncccc3n2CC(=O)O)C1 (stereo not shown) [drawing 11] | >300 | >300^ μM |  |  | 
2 | CN(c1nc2cc(F)ccc2o1)C1CCc2c(c3ncccc3n2CC(=O)O)C1 (stereo not shown) [drawing 13] | 100 | 300 s |  |  | 
3 | CN(c1nc2ccc(Cl)cc2o1)[C@H]1CCc2c(c3cc(F)ccc3n2CC(=O)O)C1 | 30 | 100^ μM |  |  | 
4 | CN(c1nc2cc(F)ccc2o1)C1CCc2c(c3ncccc3n2CC(=O)O)C1 (stereo not shown) [Example 3, 2-(8-((5-fluorobenzo[d]oxazol-2-yl)(methyl)amino)-6,7,8,9-tetrahydro-5H-pyrido[3,2-b]indol-5-yl)acetic acid] |  |  | 31 |  | 
5 | CN(c1nc2cc(Cl)ccc2o1)C1CCc2c(c3ncccc3n2CC(=O)O)C1 (stereo not shown) [drawing 12] | 100 | 300 s |  |  | 
6 | CN(c1nc2ccc(Cl)cc2o1)C1CCc2c(c3ncccc3n2CC(=O)O)C1 (stereo not shown) [Example 1, 2-(8-((6-chlorobenzo[d]oxazol-2-yl)(methyl)amino)-6,7,8,9-tetrahydro-5H-pyrido[3,2-b]indol-5-yl)acetic acid] |  |  | 11 | 27 | 31
7 | CN(c1nc2cc(Cl)ccc2o1)C1CCc2c(c3ncccc3n2CC(=O)O)C1 (stereo not shown) [Example 2, 2-(8-((5-chlorobenzo[d]oxazol-2-yl)(methyl)amino)-6,7,8,9-tetrahydro-5H-pyrido[3,2-b]indol-5-yl)acetic acid] |  |  | 35 |  | 
